A short description of assay [1]: inhibitors of intracellular T. cruzi replication, confirmation, NIH3T3 host cells, beta-gal luminescence (AID 2044).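 Also: intracellular parasites grown in NIH/3T3 mouse fibroblasts as host cells; luminescent beta-galactosidase reporter signal from transgenic T. cruzi replicating inside host cells; inhibitors lower the luminescence signal.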 The class given is functional, cell-based.
Assay [2] can be described thus: cytotoxicity toward NIH3T3 fibroblasts, dose response, counter-screen, cell-based, ATP luminescence, mouse fibroblasts (AID 2010).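 Also: cells exposed to compound for about 90 hours before reading.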 The format is functional.
For a further assay, the target named is Cytochrome P450 2D6 (Homo sapiens, UniProt P10635).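 Also: CYP2D6 member of a cytochrome P450 panel assay.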
For the next assay, the system named is Streptococcus. In words: Group A Streptococcus viability loss, dose response, counter-screen for streptokinase expression inhibitor project, luminescence, BacTiterGlo (AID 1915).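 Also: potency for reduction of bacterial viability or growth.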 The format is functional, organism-based.
Assay [3] has as its system Streptococcus sp. 'group A'. Description: growth inhibition of control SK(-) GAS strain, dose response, counter-screen for streptokinase expression inhibitor project, luminescence, kanamycin, BacTiterGlo, confirmation (AID 1900). The class given is functional, organism-based. For orientation: A counterscreen serves to expose hits that act by an unwanted route or on another target.

The target of a further assay is T1, Streptokinase A (Streptococcus pyogenes serotype M1, UniProt P10520).
T1 sequence (P10520 whole entry): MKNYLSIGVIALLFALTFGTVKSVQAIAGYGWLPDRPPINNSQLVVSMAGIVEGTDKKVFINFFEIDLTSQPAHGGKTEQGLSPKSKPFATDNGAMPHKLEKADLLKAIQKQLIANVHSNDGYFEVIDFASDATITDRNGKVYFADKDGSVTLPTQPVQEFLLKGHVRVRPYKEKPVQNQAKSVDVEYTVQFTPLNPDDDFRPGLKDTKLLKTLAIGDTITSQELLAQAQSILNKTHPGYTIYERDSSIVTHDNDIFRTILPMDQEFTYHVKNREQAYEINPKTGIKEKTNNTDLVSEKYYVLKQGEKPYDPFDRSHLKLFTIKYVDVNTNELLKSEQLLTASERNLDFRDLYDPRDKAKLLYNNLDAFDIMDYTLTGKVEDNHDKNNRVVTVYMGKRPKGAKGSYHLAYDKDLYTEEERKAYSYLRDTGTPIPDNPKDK
In words: S. pyogenes streptokinase expression inhibitors, potency, dose response, plasminogen activation absorbance, OD405 (AID 1914).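 Also: secreted streptokinase activity via plasminogen activation per viability signal from cell pellet.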 The class given is functional, Streptococcus pyogenes M1 GAS.

Assay [4] deals with T2, Corticotropin-releasing factor receptor 2/Corticotropin-releasing factor-binding protein (Homo sapiens, UniProt P24387+Q13324).
T2 sequence (Q13324 whole entry): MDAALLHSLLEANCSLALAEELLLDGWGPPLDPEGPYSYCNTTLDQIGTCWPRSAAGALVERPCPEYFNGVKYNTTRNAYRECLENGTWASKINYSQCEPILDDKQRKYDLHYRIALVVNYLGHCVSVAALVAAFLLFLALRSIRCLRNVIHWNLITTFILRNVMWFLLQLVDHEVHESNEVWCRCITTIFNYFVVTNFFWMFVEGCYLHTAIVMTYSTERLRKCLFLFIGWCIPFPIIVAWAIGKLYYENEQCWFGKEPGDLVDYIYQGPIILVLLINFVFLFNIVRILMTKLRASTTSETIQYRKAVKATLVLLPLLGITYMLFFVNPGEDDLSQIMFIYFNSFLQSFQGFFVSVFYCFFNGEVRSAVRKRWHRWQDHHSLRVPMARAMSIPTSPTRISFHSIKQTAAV
T2 sequence (P24387 whole entry): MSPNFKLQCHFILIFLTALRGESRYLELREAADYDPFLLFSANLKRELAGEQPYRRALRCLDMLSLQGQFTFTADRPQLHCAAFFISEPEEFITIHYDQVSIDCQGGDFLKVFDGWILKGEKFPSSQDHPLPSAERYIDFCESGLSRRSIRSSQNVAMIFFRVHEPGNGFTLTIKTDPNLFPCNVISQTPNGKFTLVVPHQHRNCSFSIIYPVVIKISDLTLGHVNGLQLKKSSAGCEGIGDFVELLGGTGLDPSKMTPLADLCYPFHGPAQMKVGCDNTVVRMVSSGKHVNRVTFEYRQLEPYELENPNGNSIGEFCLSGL
Description: activators of CRF receptor 2 with binding protein – uHTS hits, confirmation (AID 602473). As to conditions: read-out: EC50_Mean. The class given is functional.

The source made the active and inactive calls. Rule as the data show it, for most assays here: actives have a measured EC50 and inactives only a lower limit. Some results are limits rather than exact numbers.

These results are taken from ChEMBL document CHEMBL1201862, “PubChem BioAssay data set” (2004).

By AC50 is commonly meant the midpoint of the concentration-response curve, whichever way the signal moves.

Chain of Cytochrome P450 2D6 (P10635 whole entry): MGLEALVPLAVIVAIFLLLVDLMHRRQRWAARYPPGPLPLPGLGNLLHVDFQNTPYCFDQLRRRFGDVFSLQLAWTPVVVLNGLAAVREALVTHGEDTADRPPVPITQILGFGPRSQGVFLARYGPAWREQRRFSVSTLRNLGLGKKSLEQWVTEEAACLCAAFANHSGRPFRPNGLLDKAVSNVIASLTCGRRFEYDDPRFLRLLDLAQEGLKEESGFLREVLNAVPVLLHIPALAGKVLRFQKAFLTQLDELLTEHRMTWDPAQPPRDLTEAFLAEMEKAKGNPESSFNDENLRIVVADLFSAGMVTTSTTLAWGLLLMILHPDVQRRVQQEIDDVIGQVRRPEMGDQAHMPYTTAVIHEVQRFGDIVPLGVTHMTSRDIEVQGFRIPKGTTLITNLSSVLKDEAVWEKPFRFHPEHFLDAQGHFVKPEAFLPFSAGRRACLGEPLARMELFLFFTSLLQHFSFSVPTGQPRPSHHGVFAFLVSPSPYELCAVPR

Turning to `Cc1ccc(-c2nn(C(C)(C)C)c3ncnc(NS(=O)(=O)c4ccc([N+](=O)[O-])cc4)c23)cc1`, the EC50 was 2.33 µM (active) in assay [1] and > 60 µM (not active) in assay [2].

Turning to `Cc1ccc(NC(=O)c2c(C(F)(F)F)nn(C)c2SCc2ccc(Cl)cc2)cc1C`, the EC50 is 2.84 µM (active) in assay [1] and > 60 µM (not active) in assay [2]. For `CN1CCc2cc3c(cc2[C@@H]1[C@@H]1C(=O)Oc2c1ccc1c2OCO1)OCO3`, the AC50 on Cytochrome P450 2D6 is 39.8 µM (inconclusive). Regarding `COc1ccc(C2CC3=Nc4ncnn4C(c4ccccc4C)C3=C(O)C2)c(OC)c1` (stereo not given), the EC50 in assay [1] was 1.56 µM (active); in assay [2], > 60 µM (not active).

For the compound `Cc1cccc(Nc2nc(N)nc(CN3CCN(c4ccc(F)cc4)CC3)n2)c1`, the EC50 was 95.3 µM (active) in the assay on Streptococcus, 12.1 µM (active) in assay [3] and > 150 µM (not active) at Streptokinase A. Turning to `CNc1c([N+](=O)[O-])nn(-c2ccc3c(c2)OCCO3)[n+]1[O-]`, the EC50 in assay [1] is 0.68 µM (active); in assay [2], 20.1 µM (active).

For `CSc1ccccc1C(=O)C1CCCN(Cc2cnn(-c3ccccc3)c2)C1` (stereo not given), the figures for the EC50 in assay [1] and in assay [2] were 0.245 µM (active) and > 60 µM (not active), respectively. For `O=C(NCC1COc2ccccc2O1)c1ccc(NC(=O)C(c2ccccc2)c2ccccc2)cc1` (stereo not given) the same measures were 1.88 µM (active) and > 60 µM (inconclusive).

Take `CC(C)(C)CC(=O)N1CCC(c2nc(O)c3nnn(Cc4c(F)cccc4Cl)c3n2)CC1`: the EC50 in the assay with Streptococcus was 16.7 µM (active); on Streptokinase A, > 150 µM (not active). As for `O=C(Nc1nc(-c2ccccc2)cs1)c1cccc([N+](=O)[O-])c1`, the figures for the EC50 in assay [1] and in assay [2] were 2.4 µM (active) and > 60 µM (not active), respectively. Consider `COc1cccc(-c2nc(NCc3ccccc3)c3ccccc3n2)c1`, for which the half-maximal activity concentration (AC50) at Cytochrome P450 2D6 is 20 µM (inconclusive). Consider `CC1CCCN(CCOCCSc2ccccc2)C1` (stereo not given), for which the results for the EC50 in assay [1] and in assay [2] were 0.297 µM (active) and > 60 µM (not active), respectively. The matching figures for `c1ccc(C(c2nnnn2C2CCCC2)N2CCN(c3nc4ccccc4s3)CC2)cc1` (stereo not given): 1.95 µM (active) and > 60 µM (not active). For `Cc1ccccc1S(=O)(=O)Cc1ccc(C(=O)NCCN2CCN(Cc3ccccc3)CC2)o1` the same measures were 1.4 µM (active) and > 60 µM (not active).

Consider `O=C(c1cnccn1)N1CCC2(CCCN(c3ncccn3)C2)CC1`, for which, on Cytochrome P450 2D6, the AC50 was 15.8 µM (inconclusive).

With `Cc1ccc(N2C(=O)NC(=O)/C(=C\c3ccoc3)C2=O)cc1`, the EC50 in assay [4] is > 53 µM (inactive). On the same count and under the same terms, the figure for `Cc1noc(/C=C/c2ccc(-c3ccccc3Cl)o2)c1[N+](=O)[O-]` is 5.11 µM (active); for `COc1ccc(O)c(C(=O)c2cc(C#N)c(=O)n(-c3c(C)n(C)n(-c4ccccc4)c3=O)c2)c1` it is 6.39 µM (active). Take `CCOC(=O)c1ccc(NC(S)=NN2CCN(C)CC2)cc1`: the figures for the EC50 in assay [1] and in assay [2] were 1.08 µM (active) and > 60 µM (inconclusive), respectively. Regarding `Fc1ccc(-c2cc(C(F)(F)F)nc(N3CCCCC3)n2)cc1`, the EC50 was 13.1 µM (active) with Streptococcus, 10.3 µM (active) in assay [3] and 6.14 µM (active) at Streptokinase A. As for `C/C=C/c1ccc(OCC(O)CN(C)Cc2ccc(SC)cc2)c(OC)c1` (stereo not given), the EC50 in assay [1] is 0.388 µM (active); in assay [2], > 60 µM (not active).

Turning to `CCN(CC)CCn1c(SCC(=O)NCCC2=CCCCC2)nc2c(sc3ccccc32)c1=O`, the figures for the EC50 in assay [1] and in assay [2] were 2 µM (active) and 15.7 µM (active), respectively. For `N#Cc1ccc(CSc2nnc(-c3ccncc3)n2CCc2ccccc2)cc1` the same measures were 0.772 µM (active) and > 60 µM (not active). On to `Cc1cc(S(=O)(=O)NCc2ccccc2)ccc1OCC(=O)NCC1CCCO1` (stereo not given), for which, in assay [4], the EC50 is > 53 µM (inactive). For `COc1ccc(CN2CCN(Cc3cccc4nonc34)CC2CCO)c(C)c1C` (stereo not given), the EC50 was 0.403 µM (active) in assay [1] and > 60 µM (not active) in assay [2]. As to `COc1cccc(N/C(SCc2cccc([N+](=O)[O-])c2)=C(/C#N)C(N)=O)c1`, the values for the EC50 in assay [1] and in assay [2] were 4.17 µM (active) and > 60 µM (not active), respectively.

Consider `COc1ccc(NC(=O)N2CCCC3(CCN(S(=O)(=O)c4ccccc4)CC3)C2)cc1`, for which, on Cytochrome P450 2D6, the AC50 is 15.8 µM (inconclusive).

As to `O=C(Nc1cccc2ncccc12)c1ccc2c(c1)OCCO2`, in assay [4], the EC50 is > 53 µM (inactive). For `CCOC(=O)Cn1c(CN(Cc2ccccc2)Cc2ccccc2)nc2c1c(=O)[nH]c(=O)n2C`, the AC50 at Cytochrome P450 2D6 was 31.6 µM (inconclusive). As for `CCOc1ccc(NS(=O)(=O)c2ccc(NC(=O)[C@@H]3CCCC[C@@H]3C(=O)O)cc2)cc1`, in assay [4], the EC50 is > 53 µM (inactive).

As for `Cc1c(C(=O)Nc2ccc(S(=O)(=O)N(C)C3CCN(C)CC3)cc2)oc2c(Cl)cccc12`, the results for the EC50 in assay [1] and in assay [2] were 0.85 µM (active) and > 30 µM (not active), respectively. In the case of `CCCC[C@@H]1C[C@H]1C(NC(=O)c1ccco1)c1ccc(Cl)cc1` (stereo not given in full), the AC50 on Cytochrome P450 2D6 was 39.8 µM (inconclusive). For `Cc1cccc(N2CCN(C(=O)c3ccc(Cl)c(S(=O)(=O)N4CCc5ccccc5C4)c3)CC2)c1C`, the EC50 is 1.13 µM (active) in assay [1] and > 60 µM (inconclusive) in assay [2].

`COc1ccc(/C=C(/C(=O)c2ccc(Cl)cc2Cl)n2cncn2)cc1`: the EC50 is 0.423 µM (active) in assay [1] and 31.4 µM (active) in assay [2]. Regarding `Cn1c2ccccc2c(=O)c2cc(C#Cc3ccc(N)cc3)ccc21`, the EC50 with Streptococcus is 3.34 µM (active); in assay [3], 0.713 µM (active).

On to `Cc1cc(NC(=O)CCCn2cnc([N+](=O)[O-])n2)no1`, for which the EC50 in assay [1] is 0.797 µM (active); in assay [2], > 60 µM (inconclusive). Consider `O=C(CSc1nnc(NC(=O)c2ccccc2)s1)NCC1CCCO1` (stereo not given), for which the EC50 (in the assay with Streptococcus; in assay [3]; on Streptokinase A) was > 150 µM (not active) in each case. For `CC(C)Oc1cccc(C(=O)C2CCCN(Cc3cnc(N4CCOCC4)s3)C2)c1` (stereo not given), the EC50 in assay [1] was 0.146 µM (active); in assay [2], > 30 µM (not active). Turning to `CN(C)CCCN(C(=O)c1cc2ccccc2oc1=O)c1nc2c(F)cccc2s1`, the EC50 in assay [1] was 0.118 µM (active); in assay [2], > 60 µM (not active). As to `Cc1cc(S(=O)(=O)NCCC2=CCCCC2)ccc1Br`, the EC50 with Streptococcus was > 150 µM (not active); in assay [3], 9.73 µM (active); on Streptokinase A, 10.4 µM (active). Take `CN(CC[C@@H](Oc1ccc(-c2ccccc2)cc1)c1ccc(F)cc1)CC(=O)O`: at Cytochrome P450 2D6, the AC50 was 31.6 µM (inconclusive). Regarding `CC1=C(C)CC2(C(=O)NC(=S)NC2=O)C(C)C1` (stereo not given), the EC50 in assay [4] was > 53 µM (inactive).

Turning to `CCOc1ccc(N=C(N)Nc2nc(C)cc(C)n2)cc1`, the EC50 in assay [4] was 6.95 µM (active). Turning to `COc1ccc(/C=c2\s/c(=C/C(=O)c3ccc(C)cc3)[nH]c2=O)cc1OC`, the EC50 was 13.4 µM (active) in assay [4], > 150 µM (not active) with Streptococcus, 13.2 µM (active) in assay [3] and > 150 µM (not active) at Streptokinase A. As to `O=C(CNc1cccc2ccccc12)N/N=C/c1ccc[nH]1`, the EC50 (in the assay on Streptococcus; in assay [3]; on Streptokinase A) was > 150 µM (not active) throughout.

Turning to `Cc1ccc(N/N=C/C=C/c2ccco2)cc1`, the EC50 in assay [1] is 3.31 µM (active); in assay [2], > 30 µM (not active). `Cc1noc(C)c1-c1ccc2ncnc(NCc3cccnc3)c2c1`: on Cytochrome P450 2D6, the AC50 is 12.6 µM (inconclusive).
